The values below come from patent US11230526B1, “Cylcoalkenyl derivatives useful as agonists of the GPR120 and/or GPR40 receptors” (Janssen Pharmaceutica NV, priority 2018, dated 2022).

For experiment [1], the target named is T1, Human GPR120 short form (Homo sapiens, UniProt Q5NUL3).
T1 construct: expressed in transfected cells
T1 sequence (Q5NUL3 1-361): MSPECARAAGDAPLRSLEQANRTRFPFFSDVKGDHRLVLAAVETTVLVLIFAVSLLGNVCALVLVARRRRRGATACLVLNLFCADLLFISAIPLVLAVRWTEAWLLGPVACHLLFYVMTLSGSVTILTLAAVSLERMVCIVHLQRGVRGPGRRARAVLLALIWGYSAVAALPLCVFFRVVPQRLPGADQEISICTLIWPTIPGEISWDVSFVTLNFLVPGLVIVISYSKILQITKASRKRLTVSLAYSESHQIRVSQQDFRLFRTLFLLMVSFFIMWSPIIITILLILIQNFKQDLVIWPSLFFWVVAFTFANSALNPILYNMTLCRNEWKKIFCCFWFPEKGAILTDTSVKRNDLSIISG
The experiment is described as follows: Human GPR120 calcium flux assay, Procedure Calcium B (4200 cells/well). The class given is cell-based. An outline of the steps: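 Agonist EC50 came from a four-parameter fit of RFU (Fmax−Fmin) read over 300 s on FLIPR. Cells were HEK293 stably transfected with human GPR120 (NM_001195755.1) at 4200 per well, serum-starved 1 h and loaded with Fluo-4 NW dye with probenecid before ligand addition.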
Background: A change in cytosolic calcium serves as a functional read-out for many receptors and channels.

Experiment [2] concerns the target T2, human GPR40 (Homo sapiens, UniProt O14842).
T2 construct: expressed in transfected cells
The experiment is described as follows: GPR40 calcium flux assay, human GPR40. In kind it is cell-based. The settings on record: HEK293 cells stably expressing GPR40; table does not say human or rat. In short, it runs like this: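 Cells preincubated 1 h at 37° C. in HBSS, 20 mM HEPES, 0.1% BSA, then Fluo 8 calcium dye 30 min at 37° C. and 15 min at room temperature.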

A value given as a limit tells only on which side of the number the result lay.

T2 sequence (O14842 whole entry): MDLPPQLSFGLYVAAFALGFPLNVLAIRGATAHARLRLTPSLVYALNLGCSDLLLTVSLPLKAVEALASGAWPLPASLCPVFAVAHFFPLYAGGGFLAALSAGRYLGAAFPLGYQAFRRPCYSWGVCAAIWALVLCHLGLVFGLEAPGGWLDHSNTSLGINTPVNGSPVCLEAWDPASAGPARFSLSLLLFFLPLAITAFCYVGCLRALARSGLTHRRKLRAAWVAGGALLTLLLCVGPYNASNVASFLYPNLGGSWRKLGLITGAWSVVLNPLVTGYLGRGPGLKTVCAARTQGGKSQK

In general, EC50 refers to the concentration that produces a half-maximal response. For `Cc1cc(OCC2=C(C3CCCC3)CC(F)(F)C2)ccc1CCC(=O)O` [Compound 441, 3-[4-[(2-cyclopentyl-4,4-difluoro-cyclopenten-1-yl)methoxy]-2-methyl-phenyl]Propanoic Acid], the EC50 in experiment [1] came out at 100 nM; in experiment [2], 35 nM.
The matching figures for `O=C(O)CCc1ccc(OCC2=C(C3CCC(F)(F)CC3)CCC2)cc1Cl` [Compound 411, 3-[2-chloro-4-[[2-(4,4-difluorocyclohexyl)cyclopenten-1-yl]methoxy]phenyl]Propanoic Acid]: > 5000 nM and 133 nM.
In the case of `Cc1cc(CCC(=O)O)cc(Cl)c1OCC1=C(c2ccc(F)cc2)CC(F)(F)C1` [Compound 229, 3-[3-chloro-4-[[4,4-difluoro-2-(4-fluorophenyl)cyclopenten-1-yl]methoxy]-5-methyl-phenyl]Propanoic Acid], the concentration for a half-maximal effect (EC50) is 1050 nM in experiment [1] and > 5000 nM in experiment [2].
The like results for `O=C(O)CCc1ccc(OCC2=C(Cc3cccc(F)c3)CCC2)cc1C(F)(F)F` [Compound 361, 3-[4-[[2-[(3-fluorophenyl)methyl]cyclopenten-1-yl]methoxy]-2-(trifluoromethyl)phenyl]Propanoic Acid] were, in that order, 3300 nM and 131 nM.
The matching figures for `O=C(O)CCc1ccc(OCC2=C(C3=CCCCC3)CCC2)cc1Cl` [Compound 355, 3-[2-chloro-4-[[2-(cyclohexen-1-yl)cyclopenten-1-yl]methoxy]phenyl]Propanoic Acid]: > 5000 nM and 3690 nM.
The like results for `O=C(O)CCc1ccc(OCC2=C(Cc3ccccc3)CC(F)(F)C2)cc1C(F)(F)F` [Compound 358, 3-[4-[(2-benzyl-4,4-difluoro-cyclopenten-1-yl)methoxy]-2-(trifluoromethyl)phenyl]Propanoic Acid] were, in that order, 951 nM and 65 nM.
For the compound `Cc1cccc(C2=C(COc3ccc(CCC(=O)O)c(Cl)c3)CCC2)c1` [Compound 298, 3-[2-chloro-4-[[2-(m-tolyl)cyclopenten-1-yl]methoxy]phenyl]Propanoic Acid], the results for the EC50 in experiment [1] and in experiment [2] were 1630 nM and 1590 nM, respectively.
The matching figures for `O=C(O)CCc1cc(Cl)c(OCC2=C(c3ccc(F)cc3)CC(F)(F)C2)c(Cl)c1` [Compound 205, 3-[3,5-dichloro-4-[[4,4-difluoro-2-(4-fluorophenyl)cyclopenten-1-yl]methoxy]phenyl]Propanoic Acid]: 465 nM and > 5000 nM.
The matching figures for `O=C(O)CCc1cc(Br)c(OCC2=C(c3ccc(Cl)cc3)CCC2)c(Br)c1C(F)(F)F` [Compound 101, 3-[3,5-dibromo-4-[[2-(4-chlorophenyl)cyclopenten-1-yl]methoxy]-2-(trifluoromethyl)phenyl]Propanoic Acid]: 1230 nM and > 5000 nM.
The matching figures for `O=C(O)CCc1ccc(OCC2=C(C3CCC3)CCC2)cc1` [Compound 397, 3-[4-[(2-cyclobutylcyclopenten-1-yl)methoxy]phenyl]Propanoic Acid]: 592 nM and 418 nM.
Consider `O=C(O)CCc1ccc(OCC2=C(Cc3nccs3)CCC2)cc1Cl` [Compound 445, 3-[2-chloro-4-[[2-(thiazol-2-ylmethyl)cyclopenten-1-yl]methoxy]phenyl]Propanoic Acid], for which the concentration for a half-maximal effect (EC50) in experiment [1] is 3540 nM; in experiment [2] it was 266 nM.
The matching figures for `CCCCC1=C(COc2ccc(CCC(=O)O)c(C(F)(F)F)c2)CCC1` [Compound 370, 3-[4-[(2-butylcyclopenten-1-yl)methoxy]-2-(trifluoromethyl)phenyl]Propanoic Acid]: 1150 nM and 133 nM.
The matching figures for `CC(C)CC1=C(COc2ccc(CCC(=O)O)c(C(F)(F)F)c2)CCCC1` [Compound 579, 3-[4-[(2-isobutylcyclohexen-1-yl)methoxy]-2-(trifluoromethyl)phenyl]Propanoic Acid]: 585 nM and 75 nM.
